From US20180186814A1, “TRICYCLIC COMPOUND HAVING SULFINYL OR SULFONYL” (Shionogi & Co., Ltd., priority 2015, published 2018)
Values after ≈ are worked out from the molar mass of the structure shown.

How the values were obtained:
Assay type in all cases: cell-based
[1] = tested on: E. cloacae ATCC13047; assay: MIC by microbroth dilution (CLSI), strain No. 1; settings: E. cloacae ATCC13047, AmpC, ceftazidime-resistant, cefepime-sensitive, cation-adjusted Mueller-Hinton broth; for MIC: Enterobacter cloacae, read-out: minimum inhibitory concentration (MIC), Strain No. 1
Experimental: (§1) The minimum inhibitory concentration (MIC) was measured by the microbroth dilution method in accordance with the procedures recommended by CLSI (Clinical and Laboratory Standards Institute) using 1×10^5 CFU/mL as an inoculum dose and a cation-adjusted Mueller-Hinton broth as a test medium.
(§2) The strains used are as described in the table below.

[2] = tested on: K. pneumoniae SR01358; assay: MIC by microbroth dilution (CLSI), strain No. 2; settings: K. pneumoniae SR01358, KPC-2, KPC-producing strain, cation-adjusted Mueller-Hinton broth; for MIC: Klebsiella pneumoniae, read-out: minimum inhibitory concentration (MIC), Strain No. 2
Experimental: as §1, §2

[3] = tested on: K. pneumoniae SR01453; assay: MIC by microbroth dilution (CLSI), strain No. 3; settings: K. pneumoniae SR01453, NDM-1, MBL-producing strain, carbapenem-resistant, cation-adjusted Mueller-Hinton broth; for MIC: Klebsiella pneumoniae, read-out: minimum inhibitory concentration (MIC), Strain No. 3
Experimental: as §1, §2

[4] = tested on: K. pneumoniae NCTC13443; assay: MIC by microbroth dilution (CLSI), strain No. 4; settings: K. pneumoniae NCTC13443, NDM-1, MBL-producing strain, carbapenem-resistant, cation-adjusted Mueller-Hinton broth; for MIC: Klebsiella pneumoniae, read-out: minimum inhibitory concentration (MIC), Strain No. 4
Experimental: as §1, §2

[5] = tested on: E. cloacae SR36276; assay: MIC by microbroth dilution (CLSI), strain No. 5; settings: E. cloacae SR36276, AmpC, highly AmpC-producing strain, ceftazidime-resistant, cefepime-sensitive, cation-adjusted Mueller-Hinton broth; for MIC: Enterobacter cloacae, read-out: minimum inhibitory concentration (MIC), Strain No. 5
Experimental: as §1, §2

[6] = tested on: E. coli SR09613; assay: MIC by microbroth dilution (CLSI), strain No. 6; settings: for MIC: Escherichia coli, SR09613, read-out: minimum inhibitory concentration (MIC), Strain No. 6; for minimum inhibitory concentration (MIC), Strain No. 6: E. coli SR09613, CMY-2 type, plasmid AmpC-producing strain, ceftazidime-resistant, cefepime-sensitive, cation-adjusted Mueller-Hinton broth
Experimental: as §1, §2

[7] = tested on: E. coli SR09616; assay: MIC by microbroth dilution (CLSI), strain No. 7; settings: Escherichia coli, SR09616, read-out: minimum inhibitory concentration (MIC), Strain No. 7
Experimental: as §1, §2

SMILES	MIC [1] [µg/mL]	MIC [2] [µg/mL]	MIC [3] [µg/mL]	MIC [4] [µg/mL]	MIC [5] [µg/mL]	other results
Nc1nc(/C(=N/OCC(=O)O)C(=O)N[C@@H]2C(=O)N3[C@@H]2[S@@+]([O-])C[C@@H]2CC(=O)O[C@@]23C(=O)O)cs1 [Compound I-001]	0.125 (≈ 0.249 µM)	0.25 (≈ 0.499 µM)	0.063 (≈ 0.126 µM)	1 (≈ 1.99 µM)	0.063 (≈ 0.126 µM)	–
Nc1nc(/C(=N/O)C(=O)N[C@@H]2C(=O)N3[C@@H]2[S@@+]([O-])C[C@@H]2CC(=O)O[C@@]23C(=O)O)cs1 [Compound I-024]	–	–	2 (≈ 4.51 µM)	–	4 (≈ 9.02 µM)	–
CO/N=C(\C(=O)N[C@@H]1C(=O)N2[C@@H]1[S@@+]([O-])C[C@@H]1CC(=O)O[C@@]12C(=O)[O-])c1csc(N)n1.[Na+] [Compound I-023]	0.25	1	0.25	4	1	–
Nc1nc(/C(=N/OCCO)C(=O)N[C@@H]2C(=O)N3[C@@H]2[S@@+]([O-])C[C@@H]2CC(=O)O[C@@]23C(=O)[O-])cs1.[Na+] [Compound I-059]	0.063	0.5	0.063	1	0.25	–
C[C@H](O/N=C(\C(=O)N[C@@H]1C(=O)N2[C@@H]1[S@@+]([O-])C[C@@H]1CC(=O)O[C@@]12C(=O)O)c1csc(N)n1)C(=O)O [Compound I-005]	0.5 (≈ 0.97 µM)	0.5 (≈ 0.97 µM)	0.125 (≈ 0.242 µM)	1 (≈ 1.94 µM)	0.125 (≈ 0.242 µM)	–
Nc1nc(/C(=N/OCC(=O)O)C(=O)N[C@@H]2C(=O)N3[C@@H]2[S@@+]([O-])C[C@@H]2CC(=O)O[C@@]23c2nnn[nH]2)cs1 [Compound I-046]	1 (≈ 1.9 µM)	–	0.5 (≈ 0.952 µM)	–	0.5 (≈ 0.952 µM)	–
Nc1nc(/C(=N/OCCC(=O)O)C(=O)N[C@@H]2C(=O)N3[C@@H]2[S@@+]([O-])C[C@@H]2CC(=O)O[C@@]23C(=O)[O-])cs1.[Na+] [Compound I-061]	–	–	–	–	–	minimum inhibitory concentration (MIC), Strain No. 1 [1]: 0.125 µg/mL; minimum inhibitory concentration (MIC), Strain No. 2 [2]: 0.5 µg/mL; minimum inhibitory concentration (MIC), Strain No. 3 [3]: 0.25 µg/mL; minimum inhibitory concentration (MIC), Strain No. 4 [4]: 4 µg/mL; minimum inhibitory concentration (MIC), Strain No. 5 [5]: 0.25 µg/mL
Nc1nc(/C(=N/O[C@@H](CO)C(=O)O)C(=O)N[C@@H]2C(=O)N3[C@@H]2[S@@+]([O-])C[C@@H]2CC(=O)O[C@@]23C(=O)O)cs1 [Compound I-027]	0.063 (≈ 0.119 µM)	0.25 (≈ 0.47 µM)	0.063 (≈ 0.119 µM)	1 (≈ 1.88 µM)	≤ 0.031	–
CC(CO)(CO)O/N=C(\C(=O)N[C@@H]1C(=O)N2[C@@H]1[S@@+]([O-])C[C@@H]1CC(=O)O[C@@]12C(=O)O)c1csc(N)n1 [Compound I-045]	0.5 (≈ 0.941 µM)	–	0.25 (≈ 0.47 µM)	8 (≈ 15.1 µM)	2 (≈ 3.76 µM)	MIC [6]: 0.25 µg/mL (≈ 0.47 µM)
CC[C@H](O/N=C(\C(=O)N[C@@H]1C(=O)N2[C@@H]1[S@@+]([O-])C[C@@H]1CC(=O)O[C@@]12C(=O)O)c1csc(N)n1)C(=O)O [Compound I-009]	0.5 (≈ 0.944 µM)	–	0.5 (≈ 0.944 µM)	4 (≈ 7.55 µM)	0.25 (≈ 0.472 µM)	–
Nc1nc(/C(=N/OCCF)C(=O)N[C@@H]2C(=O)N3[C@@H]2[S@@+]([O-])C[C@@H]2CC(=O)O[C@@]23C(=O)O)cs1 [Compound I-010]	0.25 (≈ 0.511 µM)	–	0.25 (≈ 0.511 µM)	8 (≈ 16.3 µM)	1 (≈ 2.04 µM)	–
C[n+]1ccc(CO/N=C(\C(=O)N[C@@H]2C(=O)N3[C@@H]2[S@@+]([O-])C[C@@H]2CC(=O)O[C@@]23C(=O)[O-])c2csc(N)n2)cc1 [Compound I-041]	1 (≈ 1.82 µM)	–	0.5 (≈ 0.911 µM)	–	–	MIC [6]: 0.5 µg/mL (≈ 0.911 µM); MIC [7]: 2 µg/mL (≈ 3.65 µM)
NCCO/N=C(\C(=O)N[C@@H]1C(=O)N2[C@@H]1[S@@+]([O-])C[C@@H]1CC(=O)O[C@@]12C(=O)O)c1csc(N)n1 [Compound I-072]	–	–	–	–	–	MIC [6]: 4 µg/mL (≈ 8.22 µM); MIC [7]: 4 µg/mL (≈ 8.22 µM)
Nc1nc(/C(=N/OCc2ccncc2)C(=O)N[C@@H]2C(=O)N3[C@@H]2[S@@+]([O-])C[C@@H]2CC(=O)O[C@@]23C(=O)O)cs1 [Compound I-040]	–	–	–	–	–	MIC [6]: 4 µg/mL (≈ 7.48 µM)
Nc1nc(/C(=N/OCc2cc(O)no2)C(=O)N[C@@H]2C(=O)N3[C@@H]2[S@H](O)C[C@@H]2CC(=O)O[C@@]23C(=O)[O-])cs1.[Na+] [Compound I-063]	–	–	–	–	–	minimum inhibitory concentration (MIC), Strain No. 6 [6]: 4 µg/mL
Nc1nc(/C(=N/OCC(=O)O)C(=O)N[C@@H]2C(=O)N3[C@@H]2[SH](O)C[C@@H]2CC(=O)O[C@@]23C(=O)O)c(F)s1 (stereo partly shown) [Compound I-036]	–	–	–	–	–	minimum inhibitory concentration (MIC), Strain No. 1 [1]: 0.5 µg/mL (≈ 0.959 µM); minimum inhibitory concentration (MIC), Strain No. 3 [3]: 1 µg/mL (≈ 1.92 µM); minimum inhibitory concentration (MIC), Strain No. 4 [4]: 8 µg/mL (≈ 15.3 µM); minimum inhibitory concentration (MIC), Strain No. 5 [5]: 1 µg/mL (≈ 1.92 µM)
CCO/N=C(\C(=O)N[C@@H]1C(=O)N2[C@@H]1[S@@+]([O-])C[C@@H]1CC(=O)O[C@@]12C(=O)O)c1csc(N)n1 [Compound I-019]	0.5 (≈ 1.06 µM)	–	0.5 (≈ 1.06 µM)	8 (≈ 17 µM)	1 (≈ 2.12 µM)	–
COC(=O)NCCO/N=C(\C(=O)N[C@@H]1C(=O)N2[C@@H]1[S@@+]([O-])C[C@@H]1CC(=O)O[C@@]12C(=O)[O-])c1csc(N)n1.[Na+] [Compound I-064]	–	–	2	–	–	–
CC(C)(O/N=C(\C(=O)N[C@@H]1C(=O)N2[C@@H]1[S@@+]([O-])C[C@@H]1CC(=O)O[C@@]12C(=O)[O-])c1csc(N)n1)C(=O)[O-].[Na+].[Na+] [Compound I-007]	0.25	0.5	0.5	2	0.25	–
NC(=O)CO/N=C(\C(=O)N[C@@H]1C(=O)N2[C@@H]1[S@@+]([O-])C[C@@H]1CC(=O)O[C@@]12C(=O)[O-])c1csc(N)n1.[Na+] [Compound I-060]	0.125	0.5	0.125	4	0.5	–
Nc1nc(/C(=N/OC2(C(=O)[O-])CC2)C(=O)N[C@@H]2C(=O)N3[C@@H]2[S@@+]([O-])C[C@@H]2CC(=O)O[C@@]23C(=O)[O-])cs1.[Na+].[Na+] [Compound I-015]	0.125	0.5	0.125	1	0.125	–
CCO/N=C(\C(=O)N[C@@H]1C(=O)N2[C@@H]1S(=O)(=O)C[C@@H]1CC(=O)O[C@@]12C(=O)[O-])c1csc(N)n1.[Na+] [Compound I-071]	2	–	1	8	4	–
Nc1nc(/C(=N/OCc2cccnc2)C(=O)N[C@@H]2C(=O)N3[C@@H]2[S@@+]([O-])C[C@@H]2CC(=O)O[C@@]23C(=O)O)cs1 [Compound I-042]	–	–	2 (≈ 3.74 µM)	–	–	MIC [6]: 4 µg/mL (≈ 7.48 µM); MIC [7]: 4 µg/mL (≈ 7.48 µM)
C[n+]1cccc(CO/N=C(\C(=O)N[C@@H]2C(=O)N3[C@@H]2[S@@+]([O-])C[C@@H]2CC(=O)O[C@@]23C(=O)[O-])c2csc(N)n2)c1 [Compound I-043]	–	–	2 (≈ 3.65 µM)	–	–	MIC [6]: 2 µg/mL (≈ 3.65 µM)
Nc1nc(/C(=N/O[C@H](CO)C(=O)O)C(=O)N[C@@H]2C(=O)N3[C@@H]2[S@@+]([O-])C[C@@H]2CC(=O)O[C@@]23C(=O)O)cs1 [Compound I-026]	0.125 (≈ 0.235 µM)	0.5 (≈ 0.941 µM)	0.125 (≈ 0.235 µM)	1 (≈ 1.88 µM)	0.125 (≈ 0.235 µM)	–
CC(C)[C@H](O/N=C(\C(=O)N[C@@H]1C(=O)N2[C@@H]1[S@@+]([O-])C[C@@H]1CC(=O)O[C@@]12C(=O)O)c1csc(N)n1)C(=O)O [Compound I-022]	–	–	1 (≈ 1.84 µM)	–	0.5 (≈ 0.92 µM)	–
CO/N=C(\C(=O)N[C@@H]1C(=O)N2[C@@H]1S(=O)(=O)C[C@@H]1CC(=O)O[C@@]12C(=O)[O-])c1csc(N)n1.[Na+] [Compound I-070]	1	1	0.25	4	4	–
Nc1nc(/C(=N/OCC(=O)O)C(=O)N[C@@H]2C(=O)N3[C@@H]2S(=O)(=O)C[C@@H]2CC(=O)O[C@@]23C(=O)O)cs1 [Compound I-003]	0.25 (≈ 0.483 µM)	0.5 (≈ 0.966 µM)	0.25 (≈ 0.483 µM)	4 (≈ 7.73 µM)	1 (≈ 1.93 µM)	–
CC(=O)NCCO/N=C(\C(=O)N[C@@H]1C(=O)N2[C@@H]1[S@@+]([O-])C[C@@H]1CC(=O)O[C@@]12C(=O)O)c1csc(N)n1 [Compound I-054]	–	–	–	–	–	minimum inhibitory concentration (MIC), Strain No. 1 [1]: 1 µg/mL (≈ 1.89 µM); minimum inhibitory concentration (MIC), Strain No. 3 [3]: 0.5 µg/mL (≈ 0.946 µM); minimum inhibitory concentration (MIC), Strain No. 5 [5]: 4 µg/mL (≈ 7.57 µM); minimum inhibitory concentration (MIC), Strain No. 6 [6]: 0.5 µg/mL (≈ 0.946 µM)
Nc1nc(/C(=N/OC(F)C(=O)O)C(=O)N[C@@H]2C(=O)N3[C@@H]2[S@@+]([O-])C[C@@H]2CC(=O)O[C@@]23C(=O)O)cs1 (stereo partly shown) [Compound I-037]	0.5 (≈ 0.963 µM)	1 (≈ 1.93 µM)	0.25 (≈ 0.481 µM)	8 (≈ 15.4 µM)	0.5 (≈ 0.963 µM)	–
